In US4977273A, “Fluorine-containing 2-nitroimidazole derivatives” (Kyoto University of Honmachi, priority 1988, dated 1990):

Experiments:
EMT-6 tumor cells = test: Radiosensitization effect on tumor transplanted in animal (ER in vivo); parameters: species or system male Bal/c mouse; details: EMT-6 tumor in mouse, 100 mg/kg intraperitoneal, X-ray after 40 minutes at 450 rad/min. for 5 minutes
Protocol: Radiosensitization effect on tumor transplanted in animal (ER in vivo)
To both thighs of male Bal/c mouse (8 weeks; 4 mice in a group), 10^5 of EMT-6 tumor cells were subcutaneously inoculated. After the diameter of the tumor reached about 1 cm, a solution of a compound to be examined in saline in an amount of 100 mg of the compound per kg was intraperitonealy administered. After 40 minutes, X-ray was irradiated at 450 rad/min. for 5 minutes and then the mouse was sacrificed.
After the whol body of the mouse was sterilized with 70% ethanol, the tumor was taken out. The tissue was homogenized and then digested by stirring for 50 minutes at 37° C. with adding 22 ml of trypsin. The number of cells in the supernatant was counted. A predetermined amount of the cells was introduced in a plastic plate having a diameter of about 5 cm. To the plate, 5 ml of medium was added and cultured in a CO2 incubator. The plate containing the irradiated cells was removed from the incubator after 9 days, while a comparison dish containing unirradiated cells was incubated for 10 days. The cells were fixed by methanol and strained by Giemsa stain. Then, the number of colonies formed were counted.
The survival rate was calculated with using the data of the unirradiated cells as control.

[1] = test system: Chinese hamster V-79 cells; test: Radiosensitization effect on cells (ER in vitro); format: cell-based; details: 1.0 mM, 60 min at 37° C., nitrogen (hypoxic), X-ray 1.6 Gy/min
Protocol: Radiosensitization effect on cells (ER in vitro)
A solution of a predetermined concentration (1.0 mM) of a compound to be examined in a medium was added to the dish. After standing for 60 minutes at 37° C., the dish was placed in a closed vessel at room temperature.
After the irradiation, the cells were washed with phosphate buffer and digested with trypsin into single cells. Then, a predetermined amount of the cells was introduced into 5 ml of a culture medium in a culture dish and cultured for 7 days at 37° C. After staining and washing with water, the number of colonies formed was counted.
For comparison, the irradiation was carried out in the nitrogen atmosphere or in the air after adding the medium without the test compound.

in vivo = details: mouse, female ICR mice of 5 weeks
[2] = hardly administered in an effective amount; cited from earlier work
[3] = administered in human beings; cited from earlier work
hypoxic cells = details: compared with no Misonidazole; cited from earlier work

SMILES	ER in vivo (EMT-6 tumor cells)	ER in vitro [1]	LD50 (in vivo) [mg/kg]	neurotoxicity [2]	sensitizing effect in human beings [3]	hypoxic cell sensitizing effectiveness (hypoxic cells)
O=[N+]([O-])c1nccn1CC(F)COCC(O)CO (stereo not drawn) [(1), 1-(2'-fluoro-4'-oxa-6',7'-dihydroxyheptyl)-2-nitroimidazole]	1.38	1.49	2700	–	–	–
O=[N+]([O-])c1nccn1CC(F)COCCO (stereo not drawn) [(11), 1-(2'-fluoro-4'-oxa-6'-hydroxyhexcyl)-2-nitroimidazole]	1.52	1.66	–	–	–	–
NC(=O)CCNC(=O)C(F)(F)Cn1ccnc1[N+](=O)[O-] [(22), 3-[3'-(2"-nitroimidazolyl)-2',2'-difluoropropionylamino]propionic acid amide]	1.58	1.46	2800	–	–	–
NC(=O)C(F)(F)CNC(=O)C(F)(F)Cn1ccnc1[N+](=O)[O-] [(24), 3-[3'-(2"-nitroimidazolyl)-2',2'-difluoropropionylamino]-2,2-difluoropropionic acid amide]	1.41	1.76	2600	–	–	–
NC(=O)C(F)(F)Cn1ccnc1[N+](=O)[O-] [(28), 3-(2'-nitroimidazolyl)-2,2-difluoropropionic acid amide]	1.32	1.48	1100	–	–	–
O=C(COCC(F)(F)Cn1ccnc1[N+](=O)[O-])NCCO [(43), 2[3'-(2"-nitroimidazolyl)-2',2'-difluoropropoxy]acetic acid hydroxyethylamide]	1.38	1.54	> 2000	–	–	–
O=C(COCC(F)(F)Cn1ccnc1[N+](=O)[O-])NO [(44)]	1.48	1.68	–	–	–	–
O=C(NCCO)C(F)(F)COCC(F)(F)Cn1ccnc1[N+](=O)[O-] [(45), 3-[3'-(2"-nitroimidazolyl)-2',2'-difluoropropoxy]-2,2-difluoropropionic acid hydroxyethylamide]	1.40	1.63	> 1600	–	–	–
NC(=O)C(F)(F)COCC(F)(F)Cn1ccnc1[N+](=O)[O-] [(46), 3-[3'-(2"-nitroimidazolyl)-2',2'-difluoropropoxy]2,2-difluoropropionylamide]	1.45	1.58	–	–	–	–
O=C(CCNC(=O)C(F)(F)Cn1ccnc1[N+](=O)[O-])NCCO [(47), 3-[3'-(2"-nitroimidazolyl)-2',2'-difluoropropionamido]propionic acid hydroxyethylamide]	1.38	1.43	> 2000	–	–	–
NC(=O)CNC(=O)C(F)(F)Cn1ccnc1[N+](=O)[O-] [(48)]	1.49	1.61	2200	–	–	–
COC(=O)OCCNC(=O)C(F)(F)Cn1ccnc1[N+](=O)[O-] [(51), methyl 3-(2'-nitroimidazolyl)-2,2-difluoropropionamidoethoxyformate]	–	–	> 3000	–	–	–
COCC(O)Cn1ccnc1[N+](=O)[O-] (stereo not drawn) [Comparative (1), 1-(2-Nitro-1-imidazolyl)-3-methoxy-2-propanol]	1.43	1.50	–	strong neurotoxicity	No sensitizing effect was confirmed	about twice as effective as when no Misonidazole is used
